Experimental data reported in patent US8431541B2, “Alpha-amylase inhibitors: the montbretins and uses thereof” (The University of British Columbia, priority 2007, dated 2013).

How the values were obtained:
α-amylase (HPA) = molecular target: T1, α-amylase (HPA) (Homo sapiens, UniProt P04746); experiment: Glycosidase specificity: α-amylase; type: biochemical; conditions: at 0.1 μM Montbretin A; read-out: RA (%), Residual Enzyme Activity
T1 sequence (P04746 16-511): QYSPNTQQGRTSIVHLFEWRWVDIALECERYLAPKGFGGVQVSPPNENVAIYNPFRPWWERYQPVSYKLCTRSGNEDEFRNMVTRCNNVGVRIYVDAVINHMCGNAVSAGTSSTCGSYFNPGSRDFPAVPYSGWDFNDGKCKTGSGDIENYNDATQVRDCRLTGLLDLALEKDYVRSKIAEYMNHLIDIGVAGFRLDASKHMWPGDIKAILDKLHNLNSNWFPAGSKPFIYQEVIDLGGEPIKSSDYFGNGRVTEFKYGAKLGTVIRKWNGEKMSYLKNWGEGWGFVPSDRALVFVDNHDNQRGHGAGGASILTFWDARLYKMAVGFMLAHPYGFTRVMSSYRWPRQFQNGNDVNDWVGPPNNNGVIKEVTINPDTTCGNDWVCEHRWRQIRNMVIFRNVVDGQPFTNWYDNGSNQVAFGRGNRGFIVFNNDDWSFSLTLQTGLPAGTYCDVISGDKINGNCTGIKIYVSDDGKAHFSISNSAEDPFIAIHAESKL

[1] = molecular target: T2, β-glucosidase (Agrobacterium sp.) (Agrobacterium sp., UniProt P12614); experiment: Glycosidase specificity: β-glucosidase; type: biochemical
T2 sequence (P12614 1-459): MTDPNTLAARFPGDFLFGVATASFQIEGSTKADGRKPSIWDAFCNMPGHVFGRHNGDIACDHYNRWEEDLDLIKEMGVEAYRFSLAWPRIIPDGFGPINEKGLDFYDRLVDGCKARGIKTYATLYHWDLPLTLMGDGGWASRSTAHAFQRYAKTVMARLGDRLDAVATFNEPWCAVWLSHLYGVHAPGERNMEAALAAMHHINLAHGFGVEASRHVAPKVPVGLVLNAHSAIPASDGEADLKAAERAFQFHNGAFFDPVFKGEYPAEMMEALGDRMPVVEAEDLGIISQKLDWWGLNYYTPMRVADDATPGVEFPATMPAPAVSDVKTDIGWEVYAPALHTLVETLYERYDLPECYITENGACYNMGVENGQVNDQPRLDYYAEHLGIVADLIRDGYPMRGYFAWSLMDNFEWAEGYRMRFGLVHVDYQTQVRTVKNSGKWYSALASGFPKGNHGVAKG
Source text: The subsequent residue of montbretin A is also a β-linked glucose residue, however this residue bears a large 6-O-caffeic ester moiety and would therefore not be processed by Abg. […] Thus, the terminal glucosyl residue on the trisaccharide moiety is not required for α-amylase activity.

[2] = test system: β-hexosaminidase (Jack Bean); experiment: Glycosidase specificity: β-hexosaminidase; type: biochemical; conditions: at 0.1 μM Montbretin A
[3] = test system: α-glucosidase (Brewers Yeast); experiment: Glycosidase specificity: α-glucosidase; type: biochemical; conditions: at 0.1 μM Montbretin A
[4] = Stability in simulated gastric fluid (SGF) by UPLC; type: in vitro ADME; conditions: SGF pH 1.51, 37° C., 1 hour
Method: (§1) The stability of montbretin A in both simulated intestinal fluid (SIF) and simulated gastric fluid (SGF) were analyzed via ultra performance liquid chromatography (UPLC). The instrument consisted of a Waters® Acquity™ UPLC system equipped with a PDA and a TQ detector in tandem. The 2 μL sample injection volume was passed through a Waters® Acquity™ BEH C18 column (1.7 μm, 2.1×100 mm), with mobile phases A and B consisting of water with 0.1% formic acid and acetonitrile with 0.1% formic acid, respectively. The mobile phases were delivered at a programmed linear gradient at a column temperature of 35° C. Linearity was evaluated using a set of montbretin A calibration standards with concentrations ranging from 10 to 100 μg/mL in water. […]
(§2) To examine the gastrointestinal fluid activity, 0.5 mg/ml solutions of oleamide (positive control) in SGF or SIF were prepared by diluting a 100 μL aliquot of oleamide (50 mg/mL in 2-propanol) to 10 mL with either SGF or SIF and incubated in a 37° C. water bath for 1 or 3 hours, respectively. At time points of 1 or 3 hours, the sample was removed from the water bath and a 100 μL aliquot of the resulting solution was diluted to 1 mL with de-ionized water in a glass UPLC glass sample vial and analyzed by UPLC for oleamide content. […]

[5] = Stability in simulated intestinal fluid (SIF) by UPLC; type: in vitro ADME; conditions: SIF pH 6.89, 37° C., within 3 hours
Method: as §1, §2

## CC1O[C@@H](O[C@@H]2CO[C@@H](Oc3c(O)cc(-c4oc5cc(O)cc(O)c5c(=O)c4O[C@@H]4OC(C)[C@H](O)[C@H](O)C4O[C@@H]4OC(COC(=O)/C=C/c5ccc(O)c(O)c5)[C@@H](O)[C@@H](O)C4O[C@@H]4OC(CO)[C@@H](O)[C@@H](O)C4O)cc3O)C(O)[C@@H]2O)C(O)[C@@H](O)[C@H]1O (some centres unmarked) [Montbretin A, montbretin A]
α-amylase (HPA)
  remaining activity at 0.1 µM: 11%
[1]; at 0.1 μM Montbretin A, read-out: RA (%), Residual Enzyme Activity
  remaining activity at 0.1 µM: 100%
[1]; extent of inhibition decreasing with time
  inhibition of β-glucosidase from Agrobacterium (Abg): time dependent inhibition
[1]; pre-incubation with Abg prior to addition of assay substrate
  inhibition of Abg after pre-incubation: no inhibition
[2]
  RA (%), Residual Enzyme Activity: 99%
[3]
  RA (%), Residual Enzyme Activity: 97%
[4]
  degradation or loss in SGF: ~10%
[5]
  degradation in SIF: no significant degradation
